The record followed here is US20240327423A1, “A SERIES OF PYRROLE DERIVATIVES AND THEIR PREPARATION METHOD AND THERAPEUTIC USE” (SHENZHEN SUNGENING BIO-MEDICAL CO., LTD, priority 2020, published 2024).

Structures are written as SMILES. In brackets after ≈: the same amount, converted by molar mass. Read-outs that look alike come from different tables or passages of the source.

Series [1] is described as follows: Pharmacokinetic test in SD rats, single oral administration. The class given is in vivo. The conditions noted are these: single oral administration 10 mg/kg, test compound mixed with F901318, plasma; for half-life: read-out: T½ (converted). Here is the method: Pharmacokinetic study is performed on SD rats receiving single oral administration of each test compound mixed with F901318 (10 mg/kg, 3 rats per group). Test compounds and F901318 are dissolved with […]+10% solutol+85% saline, vortexed for 1-2 mins and ultra-sonicated for 5-10 mins to form a colorless clear drug solution. The animals are fasted overnight before oral administration, and resumed feeding 4 hours after administration. After oral administration, pharmacokinetic samples are collected from orbital blood of SD rats at 0.083 h, 0.25 h, 0.5 h, 1 h, 2 h, 4 h, 6 h, 8 h, and 24 h, and three whole blood samples are collected at each time point in a volume of 0.2-0.3 mL. Blood samples are placed on ice immediately after collected, and the plasma is separated by centrifugation within 15 min (centrifugation conditions: 8000 rpm, 1 min, and at room temperature).
The collected plasma is stored at −20° C. prior to analysis. Transfer 20 μL of plasma sample into an 0.5 mL EP tube, add 200 μL of working internal standard solution (blank group is without internal standard, using the same volume of solvent instead), vortex and mix for 3 min centrifuge at 13500 rpm for 10 min, take 100 μL of supernatant and analyze with LC-MS/MS.

Series [2] relates to Aspergillus fumigatus (ATCC MYA-4609/AF293/CBS 101355). As to the kind of experiment: Measurement of minimum inhibitory concentration (MIC), AF293. The class given is cell-based. The conditions noted are these: CBS101355; Aspergillus fumigatus AF293, 35° C., 48 hours, RPMI1640; read-out: AF293: MIC. As to the method: New streaks are made with glycerol stock solution of the strains of Aspergillus fumigatus (ATCC MYA-4609/AF 293/CBS 101355) on Sabouraud's dextrose agar (SDA), incubate at 35° C. and a humidity of 40-70% for 72 hours. Other strains are processed as the same as AF293.
RPMI1640: one packet of RPMI1640 powder is dissolved in 1 L purified water and mixed well, add 0.165M MOPS, adjust the pH to 7.0, sterilize by filtration with 0.22 um membrane, and store at 4° C. for no more than 3 months.
Physiological saline: weigh 9 g of sodium chloride powder and dissolve in 1 L of purified water, and mixed well. Sterilize at 121° C. for 30 min, store at room temperature (RT) for no more than 1 week.
Dissolve the test compound and stock solution of one control compound with DMSO and obtain solutions at a concentration of 12.8 mg/mL
The maximum concentration of each compound is 0.8 mg/mL (e.g., 150 μL of dimethyl sulfoxide+10 uL of 12.8 mg/mL compound/control). Column 1 is filled with 40 μL of compound and columns 2 to 11 with 20 μL of dimethyl sulfoxide. Transfer 20 μL of compound from column 1 to column 2 to dilute the concentration. Repeat the above steps up to column 11 to give 2× serial dilutions.
2 μL of the above 2× serial dilutions are injected into each hole of the corresponding test plate using a multichannel pipette.
Drop 5 ml of saline on the Aspergillus fumigatus SDA plate. The spores were carefully wiped off from the surface of the plate with an L-shaped coating rod. Then the suspension is transferred into a sterile tube. After shaking, let the tube stand for 5 to 10 minutes. Count the number of spores in the upper suspension with a hemocytometer and check the purity. Adjust the inoculum concentration to 0.2-2.5×10^4 spores/mL.
Inject 198 μL of diluted inoculum into each holes of the corresponding test plate using a multichannel pipette.
Incubate at 35° C. for 48 hours.
To facilitate scoring of the presence or absence of growth on the wall, a magnifying glass is used. The tested 96-well microplates were photographed and the optical density at 530 nm is read with an enzyme marker (Tecan Spark).

For series [3], the system named is Aspergillus fumigatus (ATCC-204305). The series is described as follows: Measurement of minimum inhibitory concentration (MIC), ATCC 204305. Type of series: cell-based. The conditions noted are these: Aspergillus fumigatus ATCC 204305, 35° C., 48 hours. Here is the method:
New streaks are made with glycerol stock solution of the strains of Aspergillus [NT] MYA-4609/AF 293/CBS 101355) on Sabouraud's dextrose agar (SDA), incubate at 35° C. and a humidity of 40-70% for 72 hours. Other strains are processed as the same as AF293. RPMI1640: one packet of RPMI1640 powder is dissolved in 1 L purified water and mixed well, add 0.165M MOPS, adjust the pH to 7.0, sterilize by filtration with 0.22 um membrane, and store at 4° C. for no more than 3 months. Physiological saline: weigh 9 g of sodium chloride powder and dissolve in 1 L of purified water, and mixed well. […] Dissolve the test compound and stock solution of one control compound with DMSO and obtain solutions at a concentration of 12.8 mg/mL The maximum concentration of each compound is 0.8 mg/mL (e.g., 150 μL of dimethyl sulfoxide+10 uL of 12.8 mg/mL compound/control). […] Repeat the above steps up to column 11 to give 2× serial dilutions. 2 μL of the above 2× serial dilutions are injected into each hole of the corresponding test plate using a multichannel pipette. Drop 5 ml of saline on the Aspergillus fumigatus SDA plate. The spores were carefully wiped off from the surface of the plate with an L-shaped coating rod. Then the suspension is transferred into a sterile tube. After shaking, let the tube stand for 5 to 10 minutes. Count the number of spores in the upper suspension with a hemocytometer and check the purity. Adjust the inoculum concentration to 0.2-2.5×10^4 spores/mL. Inject 198 μL of diluted inoculum into each holes of the corresponding test plate using a multichannel pipette. Incubate at 35° C. for 48 hours. […] To facilitate scoring of the presence or absence of growth on the wall, a magnifying glass is used. The tested 96-well microplates were photographed and the optical density at 530 nm is read with an enzyme marker (Tecan Spark).

The nature of series [4]: Liver microsomal stability test, human. Type of series: in vitro ADME. Conditions: Human liver microsomes. Here is the method: (§1) • 1: Add 10 μL of working solutions of test product or reference product and 80 μL of microsomal working solution (liver microsomal protein concentration of 0.5 mg/mL) to wells of TO, T5, T10, T20, T30, T60, and NCF60, and only microsomal working solution is added to the Blank60 wells. Then the samples of Blank60, T10, T20, T30 and T60, except for TO and NCF60, are placed in a water bath set at 37° C. and incubate for approximately 10 mins; • 2: Add 300 μL of termination solution (acetonitrile solution containing 200 ng/mL tolbutamide and 200 ng/mL labetalol) to Sample TO, followed by 10 ul of NADPH regeneration system working solution; • 3: After incubation of Blank60, T5, T10, T20, T30 and T60 on incubation plates, add 10 μL of NADPH regeneration system working solution to each sample well to start the reaction, and 10 uL of 100 mM potassium phosphate buffer is add to the NCF60 sample wells; • 4: After incubation for appropriate times (e.g., 5, 10, 20, 30 and 60 mins), 300 μL of termination solution is add to each sample well of test product and reference product on Blank60, T5, T10, T20, T30, T60 and NCF60 plates, respectively, to terminate the reaction. • 5: All sample plates are shaken well and centrifuged at 4000 rpm for 20 min, take 100 μL of the supernatant of the test product or reference product, dilute in 300 μL of pure water for LC-MS/MS analysis, respectively. • 6: Data analysis, T½ and CLint(mic) (μL/min/mg) values are calculated based on the first-order elimination kinetics, and the equations of first-order elimination kinetics are: […]

A short description of series [5]: Liver microsomal stability test, mouse. Type of series: in vitro ADME. Conditions: Mouse liver microsomes. As to the method: as §1
For series [6], the system named is Aspergillus fumigatus ATCCMYA-4690 (AF293). The series is described as follows: Survival rate experiment II of mouse bloodstream infection model with Aspergillus fumigatus. The class given is in vivo. Conditions: immunosuppressed male CD-1 mouse. Here is the method:
Test Case 6: Survival Rate Experiment II of Mouse Bloodstream Infection Model with Aspergillus fumigatus • Animal for experiment: male CD-1 mouse, 6-8 weeks old, 10 animals per group. • Induction of immunosuppression: the day of infection is defined as day 0, and mouses are injected intraperitoneally with corresponding doses of cyclophosphamide on day −4 (150 mg/kg), day −1 (100 mg/kg), and day 2 (100 mg/kg), respectively. • Microbial pathogen: Aspergillus fumigatus ATCCMYA-4690 (AF293). • Collection conditions of inoculum: culture on SDA culture plates, incubate at 25° C. for at least 7 days, collect with PBS+0.1% Tween 20, and count microscopically; • Inoculation level, route and volume: 3.90E+05 CFU/mouse, tail vein injection, injection volume of 100 μL/mouse; • Treatment: Treatment is started 24 hours after infection, and test compounds are dissolved in PEG400 (0.3 mg/mL), […] The administrated mouses are observed for 8 hours.

Where [7] appears, read: SD, rat, plasma, po, 10 mg/kg, read-out: AUC.
[8] abbreviates: SD, rat, plasma, po, 10 mg/kg, read-out: Cmax.
[9] abbreviates: SD, rat, plasma, po, 10 mg/kg, read-out: Tmax.
The mark [10] stands for this setting: 0.5 mg/mL protein, 37° C., NADPH.

Turning to `Cc1cc(-c2ccccc2F)c(C(=O)C(=O)Nc2ccc3c(c2)OC[C@H]2CN(c4ncc(F)cn4)CCN32)n1C` [Example 35, (R)-2-(3-(2-fluorophenyl)-1,5-dimethyl-1H-pyrrol-2-yl)-N-(3-(5-fluoropyrimidin-2-yl)-1,2,3,4,4a, 5-hexahydrobenzo [b]pyrazino[1,2-d] [1,4]oxazin-8-yl)-2-oxoacetamide], the exposure (AUC) in series [1] (setting [7]) stood at 12800 ng·h/mL. Also, the Cmax in series [1] (setting [8]) was determined as 1520 ng/mL. Moreover, the Tmax in series [1] (setting [9]) is 50 min. In addition, the half-life in series [1] (SD, rat, plasma, po, 10 mg/kg) is 297 min. Besides, the minimal inhibitory concentration (MIC) in series [2] was 0.008 µg/mL (≈ 0.0147 µM); in series [3] (ATCC204305), 0.016 µg/mL (≈ 0.0294 µM).
As to `Cc1cc(-c2ccccc2)c(C(=O)C(=O)Nc2ccc3c(c2)OCC2CN(c4ncc(C(F)(F)F)cn4)CCN32)n1C` (stereo not drawn) [Example 9], the CLint scaled in series [4] (setting [10]) is 52.9 mL/min/kg; in series [5] (setting [10]), 81.1 mL/min/kg. Further, the half-life was found to be 23.6 min in series [4] (setting [10]) and 30.7 min in series [5] (setting [10]). In addition, the results for the “Remaining, (T = 60 min)” value in series [4] and in series [5] were 16.5% and 24.0%, respectively. For the same molecule, the minimal inhibitory concentration (MIC) in series [2] was 0.06 µg/mL (≈ 0.104 µM).
As to `Cc1cc(-c2ccccc2F)c(C(=O)C(=O)Nc2ccc3c(c2)C[C@H]2CN(c4ncc(F)cn4)CCN32)n1C` [Example 38, (S)-2-(3-(2-fluorophenyl)-1,5-dimethyl-1H-pyrrol-2-yl)-N-(2-(5-fluoropyrimidin-2-yl)-1,2,3,4,10,10a-hexahydropyrazino[1,2-a]indol-8-yl)-2-oxyacetamide], in series [4] (setting [10]), the CLint is given as 40.7 mL/min/kg and the T1/2 is given as 30.7 min. Also, the “Remaining, (T = 60 min)” value in series [4] is reported as 25.3%. Also, in series [6] (3 mg/kg (bid) orally for 6 days, started 24 hours after infection), the “day 7 survival rate” value was 50%. Moreover, in series [6] (oral, bid), the “survival time of mouses” value is on record as “prolong the survival time”. In addition, in series [1], the AUC is 41566.714 ng·h/mL, the Cmax worked out at 3053.085 ng/mL, the Tmax is 60 min and the T½ was 672.12 min. Besides, in series [5] (setting [10]), the CLint stood at 85.1 mL/min/kg and the T1/2 came out at 29.3 min. The “Remaining, (T = 60 min)” value in series [5] turned out to be 24.5%. Moreover, in series [3], the “ATCC 204305: MIC” value is 0.008 µg/mL.
Take `Cc1cc(-c2ccccc2F)c(C(=O)C(=O)Nc2ccc3c(c2)COCC2CN(c4ncc(F)cn4)CCN32)n1C` (stereo not drawn) [Example 39, 2-(3-(2-fluorophenyl)-1,5-dimethyl-1H-pyrrol-2-yl)-N-(3-(5-fluoropyrimidin-2-yl)-1,2,3,4,4a,5-hexahydro-7H-benzo[e]pyrazine[2,1-c] [1,4]oxazolin-9-yl)-2-oxoacetamide]: the “ATCC 204305: MIC” value in series [3] came out at 0.03 µg/mL.
In the case of `Cc1cc(-c2ccccc2)c(C(=O)C(=O)Nc2ccc3c(c2)CC2CN(c4ncc(F)cn4)CCN32)n1C` (stereo not drawn) [Example 1, 2-(1,5-dimethyl-3-phenyl-1H-pyrrol-2-yl)-N-(2-(5-fluoropyrimidin-2-yl)-1,2,3,4,10,10a-hexahydropyrazino[1,2-a]indol-8-yl)-2-oxoacetamide], the values for the intrinsic clearance (CLint scaled) in series [4] (setting [10]) and in series [5] (setting [10]) were 32.6 mL/min/kg and 65.2 mL/min/kg, respectively. Also, the half-life in series [4] (setting [10]) is 38.3 min; in series [1] (SD, rat, plasma, po, 10 mg/kg) it was 389 min; in series [5] (setting [10]) it was 38.3 min. For the same molecule, the figures for the “Remaining, (T = 60 min)” value in series [4] and in series [5] were 35.7% and 34.4%, respectively. Besides, the AUC in series [1] (setting [7]) stood at 48300 ng·h/mL. Also, in series [1] (setting [8]), the Cmax was found to be 3860 ng/mL. Further, the time of peak concentration (Tmax) in series [1] (setting [9]) turned out to be 140 min. For the same molecule, the minimum inhibitory concentration (MIC) in series [2] was determined as 0.03 µg/mL (≈ 0.0588 µM).
Turning to `Cc1cc(-c2ccccc2F)c(C(=O)C(=O)Nc2cnc3c(c2)OCC2CN(c4ncc(F)cn4)CCN32)n1C` (stereo not drawn) [Example 40], in series [3], the “ATCC 204305: MIC” value was found to be 0.06 µg/mL.
